Source: US20070275063A1, “SUSTAINED RELEASE PHARMACEUTICAL COMPOSITIONS AND METHODS OF TREATMENT USING THE SAME” (SmithKline Beecham Corporation, priority 1998, published 2007)
≈ marks a conversion by molar mass, not a printed value.

What was measured:
[1] = test system: fasting plasma glucose (FPG) concentrations in diabetic patients; test: PK/PD model (modified indirect response model IV) of the effect of Compound (I) on fasting plasma glucose in Type 2 diabetes patients; assay type: in vivo, human
Description: The method by which the Threshold Plasma Concentration, such as the SC50 concentration, for a given compound can be determined is:
2) the model predicted concentrations for the compound are then fed back into the model and used to determine the change in fasting plasma glucose levels after various doses;
3) the relationship between predicted plasma concentrations of compound and fasting plasma glucose can suitably be determined using an indirect pharmacological response model (model IV), for example that described in (Dayneka N L, Garg V and Jusko W J, Comparison of Four Basic Models of Indirect Pharmacodynamic Responses. J of Pharmacokinetics and Biopharmaceutics. Vol 21, No 4. 1993). This model yields estimates of glucose input rate (Kin) and output rate (Kout), maximal stimulation of glucose output (Smax). Hill coefficient (gamma) and the Threshold Plasma Concentration, such as the SC50 concentration (i.e the concentration associated with a half maximal response) to be determined for that compound. This method forms a further part of the present invention.
For Compound (I), it was necessary to account for a time delay between the time of actual initiation of dosing (week 0) and the observed change in fasting plasma glucose. This delay factor was estimated through the modelling for each dose level. […] The delay factor was incorporated into the model for deriving fasting plasma glucose by assuming that the first dose of drug occurred only after the time dictated by the delay factor. It is considered that for this model a delay factor would be required for other thiazolidinedione insulin sensitisers and that this factor will be substantially similar to that found for Compound (I). Delay factors for other compounds may also be required to be determined using similar methodology to that disclosed herein.
A modified indirect response model IV (Dayneka et al. 1993) was developed utilizing the pharmacokinetics of Compound (I) as the driving force for the change in fasting plasma glucose after various doses of Compound (I). Modeling fittings were done using ADAPT II, Release 4 (D'Argenio and Schumitzky, 1979).
In the absence of Compound (I), plasma glucose levels are governed by formation (kin) and utilization (kout). The action of Compound (I) was described as stimulation (S(t)) of the utilization of plasma glucose (kout), described in text as FPG reduction (Eq. 1). Smax represents the maximal stimulation, SC50 is the Compound (I) concentration associated with half-maximal stimulation and γ represents a sigmoidicity parameter in the Hill type function (Eq. 2). [formula]
The mean fasting plasma glucose profiles from 6 weeks prior to dosing (time 0) through 26 weeks of treatment for the 5 treatment groups are shown in FIG. 2. The PK/PD model accommodates the full nature of the fasting plasma glucose response over the duration of the study period as evidenced by the close agreement between observed and predicted fasting plasma glucose concentrations (FIG. 2). […] The lag-time allows the model to describe the slow onset of action of Compound (I) observed over the first 4 weeks of dosing.

[2] = human, in vivo
Description: Dose regimens evaluated were: 4 mg once daily and 2 mg twice daily, and 8 mg once daily and 4 mg twice daily.

EC50 ([1]; Homo sapiens, iv, estimated pharmacodynamic parameter, not in table, read-out: SC50 (plasma concentration associated with half-maximal effect on fasting plasma glucose)): 0.0514 µg/mL (≈ 0.144 µM)
mean post hoc oral clearance [2]: 2.68 L/h
SMILES: CN(CCOc1ccc(CC2SC(=O)NC2=O)cc1)c1ccccn1 (stereo not shown) [Compound (I), 5-[4-[2-(N-methyl-N-(2-pyridyl)amino)ethoxy]benzyl]thiazolidine-2,4-dione]
Smax (maximal stimulation of glucose utilization) ([1]; estimated pharmacodynamic parameter): 0.44
lag-time (delay) between first dose and onset of FPG response ([1]; mean across dose levels, estimated through the modelling): 292 h
maximum FPG reduction suggested by Smax of the model ([1]; model-derived): 160 mg/dL
reduction in glycaemia ([1]; once daily dosing, study 024): clinically meaningful reductions in glycaemia are evident
efficacy of twice daily versus once daily dosing ([1]; study 024, same total daily dose): twice daily dosing tended to be more efficacious than once daily
